Tests used:
[1] = system: recombinant human anti-SARS-CoV antibody 03-018; type: binding; parameters: Binding of antibody 03-018 to linear peptides of the N protein of SARS-CoV Urbani / Binding of antibody 03-018 to looped/cyclic peptides of the N protein of SARS-CoV Urbani: unit not given here
[2] = system: rabbit serum obtained by immunizing a rabbit with the SARS-CoV strain Frankfurt 1; type: binding; parameters: Binding of a rabbit serum to linear peptides / Binding of a rabbit serum to looped peptides / Rabbit serum linear peptides / Rabbit serum looped peptides / Binding of a rabbit serum to linear peptides of protein N of SARS-CoV Urbani (Rabbit serum linear peptides) / Binding of a rabbit serum to looped/cyclic peptides of protein N of SARS-CoV Urbani (Rabbit serum looped peptides): unit not given here
[3] = system: control sera (pooled serum of ten healthy LUMC hospital workers; commercial negative donor pooled serum from the Dutch bloodbank); type: binding, human; parameters: Binding of Control serum LUMC to linear peptides / Binding of Control serum Blood-bank to linear peptides / Binding of Control serum LUMC to looped peptides / Binding of Control Serum Blood-Bank to Looped peptides / Binding of Control serum LUMC to linear peptides of the protein M of SARS-CoV Urbani / Binding of Control serum Blood-bank to linear peptides of the protein M of SARS-CoV Urbani / Binding of Control serum LUMC to looped peptides of the protein M of SARS-CoV Urbani / Binding of Control Serum Blood-Bank to Looped peptides of the protein M of SARS-CoV Urbani: unit not given here
[4] = system: antibodies in sera from SARS patients (sera 1a, 1b, 2, 6, 37, 62, London, SARS-yellow, SARS-green); type: binding, human; parameters: Binding of serum 6 to linear peptides of protein X1 of SARS-CoV Urbani / Binding of serum 37 to linear peptides of protein X1 of SARS-CoV Urbani / Binding of serum 6 to looped/cyclic peptide (PEPSCAN-ELISA) / Binding of serum 37 to looped/cyclic peptide (PEPSCAN-ELISA) / Binding of serum 37 to looped/cyclic peptides of protein X1 of SARS-CoV Urbani / Binding of serum 6 to linear peptides of protein X2 / Binding of serum 37 to linear peptides of protein X2 / Binding of serum 37 to looped/cyclic peptides of protein X2 of SARS-CoV Urbani / Binding of serum 6 to linear peptides of protein M of SARS-CoV Urbani / Binding of serum 37 to linear peptides of protein M of SARS-CoV Urbani / Binding of serum 6 to looped/cyclic peptides of protein M of SARS-CoV Urbani / Binding of serum 37 to looped/cyclic peptides of protein M of SARS-CoV Urbani / Binding of serum 6 to linear peptides of protein X3 of SARS-CoV Urbani / Binding of serum 37 to linear peptides of protein X3 of SARS-CoV Urbani / Binding of serum 37 to looped/cyclic peptides of protein X3 of SARS-CoV Urbani / Binding of serum 6 to linear peptides of protein X4 of SARS-CoV Urbani / Binding of serum 37 to linear peptides of protein X4 of SARS-CoV Urbani / Binding of serum 37 to looped/cyclic peptides of protein X4 of SARS-CoV Urbani / Binding of serum 6 to linear peptides of protein X5 of SARS-CoV Urbani / Binding of serum 37 to linear peptides of protein X5 of SARS-CoV Urbani / Binding of serum 37 to looped/cyclic peptides of protein X5 of SARS-CoV Urbani / Binding of serum 6 to linear peptides of protein N of SARS-CoV Urbani / Binding of serum 37 to linear peptides of protein N of SARS-CoV Urbani / Binding of serum 6 to linear peptide (PEPSCAN-ELISA) / Binding of serum 1a to looped/cyclic peptides of protein N of SARS-CoV Urbani / Binding of serum 1b to looped/cyclic peptides of protein N of SARS-CoV Urbani / Binding of serum 2 to looped/cyclic peptides of protein N of SARS-CoV Urbani / Binding of serum 6 to looped/cyclic peptides of protein N of SARS-CoV Urbani / Binding of serum 37 to looped/cyclic peptides of protein N of SARS-CoV Urbani / Binding of serum 62 to looped/cyclic peptides of protein N of SARS-CoV Urbani / Binding of serum London to looped/cyclic peptides of protein N of SARS-CoV Urbani / Binding of serum SARS-green to looped/cyclic peptides of protein N of SARS-CoV Urbani: unit not given here

Sequence	Binding of antibody 03-018 to linear peptides of the N protein of SARS-CoV Urbani [1]	Binding of antibody 03-018 to looped/cyclic peptides of the N protein of SARS-CoV Urbani [1]	Binding of a rabbit serum to linear peptides of protein N of SARS-CoV Urbani (Rabbit serum linear peptides) [2]	Binding of a rabbit serum to looped/cyclic peptides of protein N of SARS-CoV Urbani (Rabbit serum looped peptides) [2]	Control Serum Blood-Bank Looped peptides [3]	Control serum Blood-bank linear peptides [3]	Control serum LUMC linear peptides [3]	Control serum LUMC looped peptides [3]	Binding of serum 1a to linear peptides of protein N of SARS-CoV Urbani [4]	Binding of serum 1a to looped/cyclic peptides of protein N of SARS-CoV Urbani [4]	Binding of serum 1b to linear peptides of protein N of SARS-CoV Urbani [4]	Binding of serum 1b to looped/cyclic peptides of protein N of SARS-CoV Urbani [4]	Binding of serum 2 to linear peptides of protein N of SARS-CoV Urbani [4]	Binding of serum 2 to looped/cyclic peptides of protein N of SARS-CoV Urbani [4]	Binding of serum 6 to looped/cyclic peptides of protein N of SARS-CoV Urbani [4]	Binding of serum 37 to looped/cyclic peptides of protein N of SARS-CoV Urbani [4]	Binding of serum 62 to looped/cyclic peptides of protein N of SARS-CoV Urbani [4]	Binding of serum London to looped/cyclic peptides of protein N of SARS-CoV Urbani [4]	Binding of serum SARS-green to looped/cyclic peptides of protein N of SARS-CoV Urbani [4]	Binding of serum SARS-yellow to looped/cyclic peptides of protein N of SARS-CoV Urbani [4]	other results
KHWPQIAQFAPSASA	0.1	0.2	0.2	0.0	0.7	0.8	0.7	0.6	0.3	0.3	0.1	0.1	0.3	0.3	0.3	0.2	0.4	0.5	0.4	0.2	Binding of serum 6 to linear peptides of protein N of SARS-CoV Urbani [4]: 0.2; Binding of serum 37 to linear peptides of protein N of SARS-CoV Urbani [4]: 0.8; Binding of serum 62 to linear peptides of protein N of SARS-CoV Urbani [4]: 0.7; Binding of serum London to linear peptides of protein N of SARS-CoV Urbani [4]: 0.7; Binding of serum SARS-green to linear peptides of protein N of SARS-CoV Urbani [4]: 0.6; Binding of serum SARS-yellow to linear peptides of protein N of SARS-CoV Urbani [4]: 0.8
KKDKKKKTDEAQPLP	0.1	0.2	0.1	0.2	0.5	0.7	0.6	0.4	0.3	0.2	0.2	0.1	1.9	2.3	0.2	0.3	0.3	0.3	0.1	0.1	Binding of serum 6 to linear peptides of protein N of SARS-CoV Urbani [4]: 0.2; Binding of serum 37 to linear peptides of protein N of SARS-CoV Urbani [4]: 0.7; Binding of serum 62 to linear peptides of protein N of SARS-CoV Urbani [4]: 0.7; Binding of serum London to linear peptides of protein N of SARS-CoV Urbani [4]: 0.6; Binding of serum SARS-green to linear peptides of protein N of SARS-CoV Urbani [4]: 0.4; Binding of serum SARS-yellow to linear peptides of protein N of SARS-CoV Urbani [4]: 0.6
KKPRQKRTATKQYNV	0.1	0.2	0.3	0.0						0.3		0.1		0.4	0.3	0.6	0.5	0.5	0.1	0.4	Binding of Control Serum Blood-Bank to Looped peptides [3]: 0.4; Binding of Control serum Blood-bank to linear peptides [3]: 0.6; Binding of Control serum LUMC to linear peptides [3]: 0.7; Binding of Control serum LUMC to looped peptides [3]: 0.5; Binding of serum 1a to linear peptide (PEPSCAN-ELISA) [4]: 0.2; Binding of serum 1b to linear peptide (PEPSCAN-ELISA) [4]: 0.1; Binding of serum 2 to linear peptide (PEPSCAN-ELISA) [4]: 0.3; Binding of serum 6 to linear peptide (PEPSCAN-ELISA) [4]: 0.2; Binding of serum 37 to linear peptide (PEPSCAN-ELISA) [4]: 0.8; Binding of serum 62 to linear peptide (PEPSCAN-ELISA) [4]: 0.8; Binding of serum London to linear peptide (PEPSCAN-ELISA) [4]: 0.7; Binding of serum SARS-green to linear peptide (PEPSCAN-ELISA) [4]: 0.1; Binding of serum SARS-yellow to linear peptide (PEPSCAN-ELISA) [4]: 0.6

Source: patent US20070128217A1 (priority 2003, published 2007)
